Source: US9783527B2, “Indazole ureas and method of use” (AbbVie Inc., priority 2014, dated 2017)

Target: human Nav1.7 (Homo sapiens (Human), UniProt Q15858)
Assay: FRET-based membrane potential assay, recombinant human sodium channel Nav1.7
Assay type: cell-based
Conditions: HEK293 cells stably expressing recombinant human Nav1.7; depolarization with veratridine (EC80) + scorpion venom
Procedure: FRET-Based Membrane Potential Assays.
Recombinant, Human Sodium Channel, Nav1.7.
Two days prior to the experiment, frozen HEK293 cells stably expressing recombinant human Nav1.7 were quickly thawed and plated at 25,000 cells/well in growth medium [DMEM (Invitrogen #11965) with 10% HI FBS (Invitrogen #10082), 2 mM glutamine, 100 units/mL penicillin, 0.1 mg/mL streptomycin (PSG, Sigma #G1146), and 500 μg/mL Geneticin (Invitrogen #10131)] in black-walled, clear-bottom 384-well poly-D-lysine-coated assay plates (Greiner Bio-One, Frickenhausen, Germany) and incubated in a humidified 5% CO2 incubator at 37° C. On the day of the assay, medium was removed by aspiration, and cells were washed with assay buffer [HBSS (Invitrogen, Carlsbad, Calif.) containing 20 mM HEPES (Invitrogen, Carlsbad, Calif.)]. After washing, 30 μL assay buffer containing the fluorescent voltage-sensor probe CC2-DMPE (Invitrogen, Carlsbad, Calif.) at 20 μM and 0.01% pluronic F-127 (Invitrogen, Carlsbad, Calif.) was added to the cells. Cells were incubated for 40 minutes at room temperature in the dark. Following the incubation, the cells were washed and 30 μL assay buffer containing 2.5 μM DiSBAC2(3) substrate (Invitrogen, Carlsbad, Calif.) and 0.5 mM VABSC-1 (Invitrogen, Carlsbad, Calif.) was added to the cells. The cells were incubated for 90 minutes at room temperature in the dark. Fluorescence readings were made using a FLIPR®^TETRA (Molecular Devices, Sunnyvale Calif.) equipped with voltage-sensor probe optics. At the start of each experiment the optimal (EC80) concentration of depolarizing agent (veratridine) was determined by testing a dilution curve of assay buffer containing veratridine (Sigma-Aldrich, St. Louis, Mo.) and 1 mg/mL scorpion venom (SVqq, from Leiurus quinquestriatus; Sigma-Aldrich, St. Louis, Mo.). […] Test compounds in the daughter plate were diluted to (˜3×) solutions in assay buffer immediately before assaying. Using the FLIPR®^TETRA, 20 μL of the (3×) compound solutions were first added to the cells, then 20 μL of depolarizing solution (3×EC80 veratridine+SVqq) were added 3 minutes later to activate the channel. Changes in fluorescence were measured at wavelengths of 440-480 nm and 565-625 nm over the course of the experimental run. Membrane depolarization was expressed as a ratio of the maximum F440-480 nm/F565-625 nm reading above average baseline F440-480 nm/F565-625 nm reading. IC50 values were calculated from curve fits of the ratio data using a four-parameter logistic Hill equation (Accelrys Assay Explorer 3.3 Client, Accelrys, San Diego, Calif.) with percent inhibition plotted against compound concentration.

Sequence of human Nav1.7 (Q15858 whole entry): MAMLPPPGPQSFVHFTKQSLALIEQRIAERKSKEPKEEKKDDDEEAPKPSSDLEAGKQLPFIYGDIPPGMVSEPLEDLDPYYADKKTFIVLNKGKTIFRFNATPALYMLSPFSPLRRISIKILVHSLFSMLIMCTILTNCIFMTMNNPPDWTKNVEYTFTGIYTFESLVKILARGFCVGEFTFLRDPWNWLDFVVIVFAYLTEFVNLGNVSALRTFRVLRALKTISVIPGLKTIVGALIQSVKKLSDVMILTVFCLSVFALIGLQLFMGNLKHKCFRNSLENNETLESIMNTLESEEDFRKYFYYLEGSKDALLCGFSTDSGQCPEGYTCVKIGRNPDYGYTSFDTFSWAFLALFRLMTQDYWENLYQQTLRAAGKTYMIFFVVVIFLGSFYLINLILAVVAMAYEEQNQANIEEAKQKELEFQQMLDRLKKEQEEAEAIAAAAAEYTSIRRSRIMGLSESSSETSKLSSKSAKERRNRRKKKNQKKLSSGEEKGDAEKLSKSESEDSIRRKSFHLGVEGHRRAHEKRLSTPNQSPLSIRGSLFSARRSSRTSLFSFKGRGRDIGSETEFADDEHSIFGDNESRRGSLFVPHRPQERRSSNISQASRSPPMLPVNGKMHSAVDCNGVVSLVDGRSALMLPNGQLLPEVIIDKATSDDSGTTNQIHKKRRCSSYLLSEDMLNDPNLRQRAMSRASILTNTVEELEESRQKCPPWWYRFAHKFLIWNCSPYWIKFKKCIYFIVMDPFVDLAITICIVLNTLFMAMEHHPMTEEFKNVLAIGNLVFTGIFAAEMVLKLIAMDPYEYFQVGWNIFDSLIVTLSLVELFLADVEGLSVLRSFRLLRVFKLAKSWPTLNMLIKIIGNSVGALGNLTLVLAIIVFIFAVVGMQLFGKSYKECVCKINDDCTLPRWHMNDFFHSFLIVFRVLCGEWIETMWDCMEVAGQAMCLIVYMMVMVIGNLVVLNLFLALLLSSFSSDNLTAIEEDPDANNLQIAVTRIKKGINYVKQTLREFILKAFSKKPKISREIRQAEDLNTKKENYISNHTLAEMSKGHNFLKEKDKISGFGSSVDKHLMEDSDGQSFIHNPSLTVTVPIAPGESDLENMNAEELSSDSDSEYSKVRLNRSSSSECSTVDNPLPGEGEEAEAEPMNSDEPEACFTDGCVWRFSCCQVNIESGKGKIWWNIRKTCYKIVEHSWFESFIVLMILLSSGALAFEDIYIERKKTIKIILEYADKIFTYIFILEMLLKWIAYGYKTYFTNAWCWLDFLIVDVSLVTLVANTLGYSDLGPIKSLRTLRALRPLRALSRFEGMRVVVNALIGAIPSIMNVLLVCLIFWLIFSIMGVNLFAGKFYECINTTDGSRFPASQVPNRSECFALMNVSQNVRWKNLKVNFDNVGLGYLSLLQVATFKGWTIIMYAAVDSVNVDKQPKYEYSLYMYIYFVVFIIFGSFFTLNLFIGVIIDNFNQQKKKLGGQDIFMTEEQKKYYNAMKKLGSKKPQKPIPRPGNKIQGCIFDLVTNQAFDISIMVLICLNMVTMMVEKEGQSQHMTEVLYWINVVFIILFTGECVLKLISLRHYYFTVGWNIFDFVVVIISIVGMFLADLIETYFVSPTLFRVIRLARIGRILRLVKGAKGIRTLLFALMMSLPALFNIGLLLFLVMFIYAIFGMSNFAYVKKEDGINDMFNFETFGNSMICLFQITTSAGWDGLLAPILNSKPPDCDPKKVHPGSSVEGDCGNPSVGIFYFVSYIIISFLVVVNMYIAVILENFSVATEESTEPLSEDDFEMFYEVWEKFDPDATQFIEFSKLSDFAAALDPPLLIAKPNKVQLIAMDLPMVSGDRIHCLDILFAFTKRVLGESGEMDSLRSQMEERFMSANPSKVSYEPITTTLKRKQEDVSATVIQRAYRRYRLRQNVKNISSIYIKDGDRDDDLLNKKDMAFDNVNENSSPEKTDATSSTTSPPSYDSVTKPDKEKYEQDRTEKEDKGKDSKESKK

**Q.** `O=C1N(c2cccc3c2cnn3-c2ccccc2F)CCN1[C@H]1CCOC1` [Example 224, 1-[1-(2-fluorophenyl)-1H-indazol-4-yl]-3-[(3S)-tetrahydrofuran-3-yl]imidazolidin-2-one] was tested. Which IC50 did it give?
**A.** The IC50 was 3600 nM.

**Q.** With `O=C1N(c2cccc3c2cnn3-c2ccccc2F)CCN1C1CN(C(=O)C2(O)CC2)C1` [Example 269, 1-[1-(2-fluorophenyl)-1H-indazol-4-yl]-3-{1-[(1-hydroxycyclopropyl)carbonyl]azetidin-3-yl}imidazolidin-2-one] as the compound, how does the IC50 read?
**A.** Its IC50 is 5790 nM.

**Q.** For `O=C1N(CC2(OCc3ccccc3)CC2)CCN1c1cccc2c1cnn2-c1ccccc1F` [Example 229, 1-{[1-(benzyloxy)cyclopropyl]methyl}-3-[1-(2-fluorophenyl)-1H-indazol-4-yl]imidazolidin-2-one], which IC50 is on record?
**A.** The IC50 was 9080 nM.

**Q.** Which IC50 does the source give for `Cc1nc(CN2CCN(c3cccc4c3cnn4-c3ccccc3F)C2=O)c(C)s1` [Example 239, 1-[(2,5-dimethyl-1,3-thiazol-4-yl)methyl]-3-[1-(2-fluorophenyl)-1H-indazol-4-yl]imidazolidin-2-one] here?
**A.** Its IC50 is 352 nM.

**Q.** How did the IC50 turn out when `CC(C)C[C@](C)(O)CN1CCN(c2cccc3c2cnn3-c2ccccc2F)C1=O` [Example 168, 1-[1-(2-fluorophenyl)-1H-indazol-4-yl]-3-[(2S)-2-hydroxy-2,4-dimethylpentyl]imidazolidin-2-one] was run?
**A.** Its IC50 is 816 nM.

**Q.** Which IC50 does the source give for `CN1[C@H]2CC[C@@H]1CN(C(=O)CN1CCN(c3cccc4c3cnn4-c3ccccc3F)C1=O)CC2` [Example 114, 1-[1-(2-fluorophenyl)-1H-indazol-4-yl]-3-{2-[(1R,6S)-9-methyl-3,9-diazabicyclo[4.2.1]non-3-yl]-2-oxoethyl}imidazolidin-2-one] here?
**A.** Its IC50 is 14300 nM.

**Q.** How did the IC50 turn out when `O=C1N(c2ccccn2)CCN1c1cccc2c1cnn2-c1ccccc1F` [Example 130, 1-[1-(2-fluorophenyl)-1H-indazol-4-yl]-3-(pyridin-2-yl)imidazolidin-2-one] was run?
**A.** The IC50 was 1850 nM.

**Q.** With `O=C(CN1CCN(c2cccc3c2cnn3-c2ccccc2F)C1=O)N1CCC1` [Example 94, 1-[2-(azetidin-1-yl)-2-oxoethyl]-3-[1-(2-fluorophenyl)-1H-indazol-4-yl]imidazolidin-2-one] as the compound, how does the IC50 read?
**A.** Its IC50 is 11900 nM.

**Q.** `CC[C@@H](O)CN1CCN(c2cccc3c2cnn3-c2ccccc2F)C1=O` [Example 160, 1-[1-(2-fluorophenyl)-1H-indazol-4-yl]-3-[(2R)-2-hydroxybutyl]imidazolidin-2-one] was tested. Which IC50 did it give?
**A.** The IC50 was 3510 nM.

**Q.** With `CCOC(=O)/C=C/N1CCN(c2cccc3c2cnn3-c2ccccc2F)C1=O` [Example 288, ethyl (2E)-3-{3-[1-(2-fluorophenyl)-1H-indazol-4-yl]-2-oxoimidazolidin-1-yl}acrylate] as the compound, how does the IC50 read?
**A.** The IC50 was 5300 nM.

**Q.** How did the IC50 turn out when `CC(C)(O)CN1CCN(c2cccc3c2cnn3-c2ccccc2F)C1=O` [Example 64, 1-[1-(2-fluorophenyl)-1H-indazol-4-yl]-3-(2-hydroxy-2-methylpropyl)imidazolidin-2-one] was run?
**A.** The IC50 was 9520 nM.

**Q.** `O=C1N(c2nccs2)CCN1c1cccc2c1cnn2-c1ccccc1F` [Example 221, 1-[1-(2-fluorophenyl)-1H-indazol-4-yl]-3-(1,3-thiazol-2-yl)imidazolidin-2-one] was tested. Which IC50 did it give?
**A.** Its IC50 is 9500 nM.

**Q.** With `CC(C)CNC(=O)CN1CCN(c2cccc3c2cnn3-c2ccccc2F)C1=O` [Example 92, 2-{3-[1-(2-fluorophenyl)-1H-indazol-4-yl]-2-oxoimidazolidin-1-yl}-N-isobutylacetamide] as the compound, how does the IC50 read?
**A.** Its IC50 is 1860 nM.

**Q.** `Cc1ccccc1CNC(=O)CN1CCN(c2cccc3c2cnn3-c2ccccc2F)C1=O` [Example 175, 2-{3-[1-(2-fluorophenyl)-1H-indazol-4-yl]-2-oxoimidazolidin-1-yl}-N-(2-methylbenzyl)acetamide] was tested. Which IC50 did it give?
**A.** Its IC50 is 2650 nM.

**Q.** How did the IC50 turn out when `O=C1N(CC(O)C2CCC2)CCN1c1cccc2c1cnn2-c1ccccc1F` (centres unmarked) [Example 165, 1-(2-cyclobutyl-2-hydroxyethyl)-3-[1-(2-fluorophenyl)-1H-indazol-4-yl]imidazolidin-2-one] was run?
**A.** Its IC50 is 681 nM.

**Q.** `C[C@@H]1CN(c2cccc3c2cnn3-c2ccccc2F)C(=O)N1` [Example 246, (4R)-1-[1-(2-fluorophenyl)-1H-indazol-4-yl]-4-methylimidazolidin-2-one] was tested. Which IC50 did it give?
**A.** The IC50 was 2980 nM.

**Q.** For `C[C@H](NC(=O)CN1CCN(c2cccc3c2cnn3-c2ccccc2F)C1=O)c1ccccc1` [Example 178, 2-{3-[1-(2-fluorophenyl)-1H-indazol-4-yl]-2-oxoimidazolidin-1-yl}-N-[(1S)-1-phenylethyl]acetamide], which IC50 is on record?
**A.** Its IC50 is 2000 nM.

**Q.** `CO[C@@H](CC(C)C)CN1CCN(c2cccc3c2cnn3-c2ccccc2F)C1=O` [Example 215, 1-[1-(2-fluorophenyl)-1H-indazol-4-yl]-3-[(2S)-2-methoxy-4-methylpentyl]imidazolidin-2-one] was tested. Which IC50 did it give?
**A.** The IC50 was 1080 nM.

**Q.** For `O=C(CN1CCN(c2cccc3c2cnn3-c2ccccc2F)C1=O)N1CC(F)C(F)C1` (centres unmarked) [Example 206, 1-[2-(3,4-difluoropyrrolidin-1-yl)-2-oxoethyl]-3-[1-(2-fluorophenyl)-1H-indazol-4-yl]imidazolidin-2-one], which IC50 is on record?
**A.** The IC50 was 1060 nM.

**Q.** For `Cc1nnc(CN2CCN(c3cccc4c3cnn4-c3ccc(F)cc3F)C2=O)s1` [Example 234, 1-[1-(2,4-difluorophenyl)-1H-indazol-4-yl]-3-[(5-methyl-1,3,4-thiadiazol-2-yl)methyl]imidazolidin-2-one], which IC50 is on record?
**A.** Its IC50 is 2900 nM.

**Q.** Which IC50 does the source give for `CCOCCNC(=O)CN1CCN(c2cccc3c2cnn3-c2ccccc2F)C1=O` [Example 74, N-(2-ethoxyethyl)-2-{3-[1-(2-fluorophenyl)-1H-indazol-4-yl]-2-oxoimidazolidin-1-yl}acetamide] here?
**A.** The IC50 was 7540 nM.

**Q.** `O=C1N(CC(=O)N2C[C@H](F)C[C@@H]2c2cc(F)ccc2F)CCN1c1cccc2c1cnn2-c1ccccc1F` [Example 127, 1-{2-[(2R,4R)-2-(2,5-difluorophenyl)-4-fluoropyrrolidin-1-yl]-2-oxoethyl}-3-[1-(2-fluorophenyl)-1H-indazol-4-yl]imidazolidin-2-one] was tested. Which IC50 did it give?
**A.** The IC50 was 1560 nM.

**Q.** With `CC(C)S(=O)(=O)N1CCN(c2cccc3c2cnn3-c2ccccc2F)C1=O` [Example 82, 1-[1-(2-fluorophenyl)-1H-indazol-4-yl]-3-(isopropylsulfonyl)imidazolidin-2-one] as the compound, how does the IC50 read?
**A.** The IC50 was 2460 nM.

**Q.** Which IC50 does the source give for `CC(C)C(=O)CN1CCN(c2cccc3c2cnn3-c2ccccc2F)C1=O` [Example 162, 1-[1-(2-fluorophenyl)-1H-indazol-4-yl]-3-(3-methyl-2-oxobutyl)imidazolidin-2-one] here?
**A.** The IC50 was 729 nM.

**Q.** Which IC50 does the source give for `O=C(CC1CCOC1)CN1CCN(c2cccc3c2cnn3-c2ccccc2F)C1=O` (centres unmarked) [Example 157, 1-[1-(2-fluorophenyl)-1H-indazol-4-yl]-3-[2-oxo-3-(tetrahydrofuran-3-yl)propyl]imidazolidin-2-one] here?
**A.** Its IC50 is 3370 nM.

**Q.** How did the IC50 turn out when `C[C@@H]1CN(c2cccc3c2cnn3-c2ccccc2F)C(=O)N1Cc1ncco1` [Example 247, (4R)-1-[1-(2-fluorophenyl)-1H-indazol-4-yl]-4-methyl-3-(1,3-oxazol-2-ylmethyl)imidazolidin-2-one] was run?
**A.** Its IC50 is 981 nM.

**Q.** `Cc1nc(CN2CCN(c3cccc4c3cnn4-c3ccccc3F)C2=O)cs1` [Example 217, 1-[1-(2-fluorophenyl)-1H-indazol-4-yl]-3-[(2-methyl-1,3-thiazol-4-yl)methyl]imidazolidin-2-one] was tested. Which IC50 did it give?
**A.** The IC50 was 1070 nM.

**Q.** For `O=C(CN1CCN(c2cccc3c2cnn3-c2ccccc2F)C1=O)N1CC2CCCC2C1` (centres unmarked) [Example 106, 1-[1-(2-fluorophenyl)-1H-indazol-4-yl]-3-[2-(hexahydrocyclopenta[c]pyrrol-2(1H)-yl)-2-oxoethyl]imidazolidin-2-one], which IC50 is on record?
**A.** The IC50 was 635 nM.

**Q.** `O=C(CN1CCN(c2cccc3c2cnn3-c2ccccc2F)C1=O)c1cccc(F)c1` [Example 150, 1-[1-(2-fluorophenyl)-1H-indazol-4-yl]-3-[2-(3-fluorophenyl)-2-oxoethyl]imidazolidin-2-one] was tested. Which IC50 did it give?
**A.** Its IC50 is 3160 nM.

**Q.** With `O=C(CN1CCN(c2cccc3c2cnn3-c2ccccc2F)C1=O)N1CC(F)(F)C1` [Example 91, 1-[2-(3,3-difluoroazetidin-1-yl)-2-oxoethyl]-3-[1-(2-fluorophenyl)-1H-indazol-4-yl]imidazolidin-2-one] as the compound, how does the IC50 read?
**A.** The IC50 was 1740 nM.

**Q.** For `CC(C)c1cc(CN2CCN(c3cccc4c3cnn4-c3ccccc3F)C2=O)no1` [Example 251, 1-[1-(2-fluorophenyl)-1H-indazol-4-yl]-3-[(5-isopropyl-1,2-oxazol-3-yl)methyl]imidazolidin-2-one], which IC50 is on record?
**A.** The IC50 was 2060 nM.

**Q.** With `O=C1N(c2cccc3c2cnn3-c2ccccc2F)CCN1C1CCC1` [Example 184, 1-cyclobutyl-3-[1-(2-fluorophenyl)-1H-indazol-4-yl]imidazolidin-2-one] as the compound, how does the IC50 read?
**A.** The IC50 was 1060 nM.
